The test system of test [1] is CCRF-CEM. Nature of the test: Antiproliferative activity against human CCRF-CEM cells at 1 uM after 96 hrs. The test is classed as functional.
Test [2] relates to CCRF-CEM. As to the kind of experiment: Antiproliferative activity against human CCRF-CEM cells at 1 uM after 24 hrs. The test is classed as functional, cell-based.

Activity calls are given as the source filed them. No cut-off for these calls is given here.

On to `CCCCCCCCCCCCCC(=O)OC[C@H]1O[C@@H](n2ccc(N)nc2=O)[C@@H](O)[C@@H]1O`, for which the result in test [1] was inactive.
The same measure, in the same setting: as for `CCSCCCCCCCCCCCC(=O)OC[C@H]1O[C@@H](n2ccc(N)nc2=O)[C@@H](O)[C@@H]1O`, the entry is “inactive”.
In the case of `CCCCCCCCCCCCCC(=O)O[C@H]1[C@H](O)[C@@H](CO)O[C@H]1n1ccc(N)nc1=O`, the result in test [2] was Active. In test [1], this compound came in with an Activity of 36%.
The matching figures for `CCCCCCCCCCCCCC(=O)OC[C@H]1O[C@@H](n2ccc(N)nc2=O)[C@@H](OC(=O)CCCCCCCCCCCCC)[C@@H]1O`: “Active” and 76%.
On the same counts, the results for `CCSCCCCCCCCCCCC(=O)O[C@H]1[C@H](O)[C@@H](CO)O[C@H]1n1ccc(N)nc1=O` are “Active” and 36%.

These data come from ChEMBL document CHEMBL1250486, “Synthesis and evaluation of fatty acyl ester derivatives of cytarabine as anti-leukemia agents” (2010).
